Reference: US8492391B2, “Substituted 6-(2-hydroxybenzylamino)purine derivatives, their use as medicaments and compositions containing these derivatives” (Univerzita Palackeho V Olomouci, priority 2009, dated 2013)
Read-outs that look alike come from different tables or passages of the source.

Legend:
β-adrenergic receptors = assay: Modulation of the activity of β-adrenergic receptors (isoproterenol-induced cAMP synthesis in C6 glioma); type: cell-based; conditions: rat C6 glioma, cAMP synthesis induced by 5 μM (−) isoproterenol, 30 min; for EFFECT (modulation of the activity of β-adrenergic receptors) / EFFECT: fold activation (modulation of the activity of β-adrenergic receptors): simultaneous addition
Protocol: Mechanism of action of novel compounds is presented on FIG. 2. […] Incubation was at 37° C. in a humidified atmosphere. Assays were performed in the logaritmic growth phase at a density of 2.5×10^5 cells/cm^2. Intracellular cAMP synthesis was induced by addition of 5 μM (−) isoproterenol. After 30 min incubation at 37° C. the medium was removed and the cellular amount of cAMP determined using the cAMP-enzyme immunoassay kit of Amersham. The I50 is determined from a dose-response curve in duplicate. The effect of several novel substituted 6-(2-hydroxybenzylamino)purine derivatives was measured after simultaneous addition with isoproterenol.
As P2Y1-like and A2 purinergic receptors, negatively and positively coupled to adenylate cyclase respectively, are present on rat C6 glioma. It has to be determined if the modulation of the synthesis of cAMP is due to inhibition of the activation of β-adrenergic receptors by isoproterenol are due to activation of purinergic receptors.

p53 = assay: p53-dependent transcription, β-galactosidase reporter in Arn8 cells; type: cell-based, human; set-up: key to p53 (effect): induction of p53 protein: ++: very strong; +: weak; −: no effect; conditions: for p53 (effect): induction of p53 protein: Arn8 cells stable transfected with a β-galactosidase reporter gene; for p53 (peak concentration in μM): Arn8 cells, concentration inducing maximum of β-galactosidase activity
Text: Protein p53, accumulated in nuclei upon treatment by the compounds, then leads to trans-activation of natural cell cycle inhibitor p21^WAF1, further blocking the cell cycle. […] This allows qualitative as well as quantitative measurement of CDK inhibitors-induced p53 transcriptional activity via β-galactosidase assay. Then, the effect will be verified in treated cells by immunoblotting of proteins expressed under the control of p53. β-galactosidase activity of human melanoma cell line Arn8 was determined as described. […] Alternatively, β-galactosidase activity was quantified by measuring fluorescence of methylumbelliferyl-β-D-galactopyranoside cleavage product. Cell lines established from the human breast carcinoma (MCF-7) and the human melanoma (Arn8) cell lines were cultured in Dubecco's Modified Eagle Medium (DMEM) supplemented with 10% foetal bovine serum.
Effects of prepared compounds on activation of p53 protein were analysed in human melanoma cell line Arn8. […] The total β-galactosidase activity in Arn8 cells was quantified using a fluorimetric assay.

CDK2/cyclin E = target: T1, CDK2/cyclin E (Homo sapiens, UniProt P24941); assay: CDK2/cyclin E kinase inhibition assay; type: biochemical; conditions: kinase inhibitory activity, 15 μM ATP, histone substrate
T1 construct: made in house; host or cells: Sf9 insect cells, baculovirus co-infection
Protocol: (§1) Selected compounds were tested for CDK1/cyclin B, CDK2/cyclin E, CDK5/p25, CDK7/cyclin H and CDK9/cyclin T inhibitory activity to determine the basic relationships between their structure and the inhibitory activity. Cdk/cyclin complexes were expressed in Sf9 cells co-infected with appropriate baculoviral construct. The cells were harvested 70 hours post infection in lysis buffer (50 mM Tris pH 7.4, 150 mM NaCl, 5 mM EDTA, 20 mM NaF, 1% Tween 20, protease inhibitors) for 30 min on ice and the soluble fraction was recovered by centrifugation at 14.000 g for […]. The protein extract was stored at −80° C. until use. The final point test system for kinase activity measurement was used to carry out experiments on the kinetics under linear conditions. […] ATP and tested compound in a final volume of 20 μl, all in reaction buffer: 50 mM Hepes pH 7.4, 10 mM MgCl2, 5 mM EGTA, 10 mM 2-glycerolphosphate, 1 mM NaF, 1 mM DTT and protease inhibitors. After 30 min, the incubations were stopped by adding 5% H3PO4 and then the proteins were separated by phosphocellulose binding. The measurement of kinase inhibition employed the digital imaging analyzer BAS 1800. The kinase activity was expressed as a percentage of maximum activity and the IC50 value was determined by graphic analysis. The kinase activity is expressed as a percentage of maximum activity (FIG. 1).

[1] = test system: MCF7 (human breast adenocarcinoma); assay: Calcein AM cytotoxicity assay, MCF7; type: cell-based; conditions: MCF7, read-out: Cytotoxic activity IC50 (μM) MCF7
Text: (§2) Cytotoxicity of the compounds is the major property determining their anticancer effect in vivo. One of the parameters used, as the basis for cytotoxicity assays, is the metabolic activity of viable cells. For example, a microtiter assay, which uses the Calcein AM, is now widely used to quantitate cell proliferation and cytotoxicity. For instance, this assay is used in drug screening programs and in chemosensitivity testing. Because only metabolically active cells cleave Calcein AM, these assays detect viable cells exclusively. The quantity of cleaved Calcein AM corresponds to the number of vital cells in the culture. We have been using the following cell lines: MCF7 (human breast adenocarcinoma), K562 (human chronic myelogenous leukaemia), HOS (human osteogenic sarcoma), HeLa (human cervical carcinoma), HL 60 (human promyelocytic leukaemia), G 361 (human malignant melanoma), CEM (human lymphoblastoid leukaemia). All cell lines were grown in DMEM medium (Gibco BRL) supplemented with 10% (v/v) fetal bovine serum and L-glutamine and maintained at 37° C. in a humidified atmosphere with 5% CO2. For cytotoxicity assays, 10^4 cells were seeded into each well of 96 well plate, allowed to stabilize for at least 2 h and then tested compounds were added at various concentrations ranging from 100 to 0.1 μM in triplicates. Three days after drug addition Calcein AM solution (Molecular Probes) was added and let to enter the cells for 1 hour. Fluorescence of viable cells was quantified using Fluoroskan Ascent (Microsystems).

[2] = test system: K562 (human chronic myelogenous leukaemia); assay: Calcein AM cytotoxicity assay, K562; type: cell-based; conditions: read-out: Cytotoxic activity IC50 (μM) K562
Text: as §2

CDK9/cyclin T = target: T2, CDK9/cyclin T (Homo sapiens, UniProt P50750); assay: CDK9/cyclin T kinase inhibition assay; type: biochemical; conditions: kinase inhibitory activity, 15 μM ATP, (YSPTSPS)3 peptide substrate
T2 construct: made in house; host or cells: Sf9 insect cells, baculovirus co-infection
Protocol: as §1

[3] = test system: HOS (human osteogenic sarcoma); assay: Calcein AM cytotoxicity assay, HOS; type: cell-based; conditions: read-out: Cytotoxic activity IC50 (μM) HOS
Text: as §2

T2 sequence (P50750 whole entry, species assumed): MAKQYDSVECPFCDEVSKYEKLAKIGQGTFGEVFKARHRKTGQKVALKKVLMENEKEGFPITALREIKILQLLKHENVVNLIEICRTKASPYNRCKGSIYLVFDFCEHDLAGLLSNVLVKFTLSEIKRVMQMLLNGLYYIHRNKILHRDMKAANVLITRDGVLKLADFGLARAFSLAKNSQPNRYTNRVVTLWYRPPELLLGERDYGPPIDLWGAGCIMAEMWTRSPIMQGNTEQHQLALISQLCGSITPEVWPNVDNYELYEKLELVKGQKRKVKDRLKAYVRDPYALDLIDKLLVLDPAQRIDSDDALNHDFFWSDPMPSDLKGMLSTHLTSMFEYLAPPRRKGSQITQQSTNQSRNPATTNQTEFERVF
T2 sequence (O60563 whole entry partner, species assumed): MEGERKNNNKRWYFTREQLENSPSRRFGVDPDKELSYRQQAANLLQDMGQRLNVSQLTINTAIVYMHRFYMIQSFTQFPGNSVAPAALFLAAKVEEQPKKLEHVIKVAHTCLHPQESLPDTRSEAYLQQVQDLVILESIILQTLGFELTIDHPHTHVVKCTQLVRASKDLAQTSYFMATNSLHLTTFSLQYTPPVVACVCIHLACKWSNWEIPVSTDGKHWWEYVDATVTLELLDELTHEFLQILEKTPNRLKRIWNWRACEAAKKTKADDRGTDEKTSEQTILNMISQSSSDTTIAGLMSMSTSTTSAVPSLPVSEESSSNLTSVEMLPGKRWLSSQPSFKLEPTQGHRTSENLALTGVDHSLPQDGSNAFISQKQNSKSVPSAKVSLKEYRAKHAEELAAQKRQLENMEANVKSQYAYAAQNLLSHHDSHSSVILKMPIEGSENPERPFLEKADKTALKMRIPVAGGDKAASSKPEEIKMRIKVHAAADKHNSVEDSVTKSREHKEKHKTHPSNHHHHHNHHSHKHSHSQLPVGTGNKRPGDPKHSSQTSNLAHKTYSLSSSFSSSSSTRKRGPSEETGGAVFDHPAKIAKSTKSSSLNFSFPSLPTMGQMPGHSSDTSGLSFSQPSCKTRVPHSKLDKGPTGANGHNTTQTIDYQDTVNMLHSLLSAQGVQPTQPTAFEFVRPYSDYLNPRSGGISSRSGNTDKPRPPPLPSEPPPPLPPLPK

SMILES | IC50 (β-adrenergic receptors) | EFFECT (modulation of the activity of β-adrenergic receptors) (β-adrenergic receptors) | IC50 (CDK2/cyclin E) | IC50 (CDK9/cyclin T) | IC50 (μM) (modulation of the activity of β-adrenergic receptors) (β-adrenergic receptors) | p53 (effect): induction of p53 protein (p53) | p53 (peak concentration in μM) (p53) | IC50 ([1]; Homo sapiens) | EFFECT: fold activation (modulation of the activity of β-adrenergic receptors) (β-adrenergic receptors) | IC50 ([2]; Homo sapiens) | IC50 ([3]; Homo sapiens) | IC50 [1] | IC50 [2] | IC50 [3]
CCC(CO)Nc1nc(NCc2cc(Cl)ccc2O)c2ncn(C(C)C)c2n1 (stereo not drawn) [Compound 79] |  |  | 0.07 µM | 0.04 µM |  | ++ | 8.0 µM | 3.5 µM | 1.5-fold activation | 11.9 µM | 5.3 µM |  |  | 
CC(C)C(CO)Nc1nc(NCc2cc(Cl)ccc2O)c2ncn(C(C)C)c2n1 (stereo not drawn) [Compound 80] |  |  | 0.06 µM | 0.05 µM |  |  |  |  | 1.8-fold activation |  |  |  |  | 
CC(C)n1cnc2c(NCc3cc(Cl)ccc3O)nc(NCC(C)(C)O)nc21 [Compound 81] |  |  | 0.03 µM | 0.02 µM |  |  |  |  | 1.7-fold activation |  |  |  |  | 
CC(C)n1cnc2c(NCc3cc(F)ccc3O)nc(NC3CCCCC3N)nc21 (stereo not drawn) [Compound 86] | 8 ± 2 µM | inhibition | 0.04 µM | 0.02 µM |  |  |  | 1.8 µM |  | 7.6 µM | 3.2 µM |  |  | 
CCC(CO)Nc1nc(NCc2cc(F)ccc2O)c2ncn(C(C)C)c2n1 (stereo not drawn) [Compound 89] |  |  | 0.05 µM | 0.02 µM |  | ++ | 6.0 µM | 3.2 µM | 1.9-fold activation | 14.7 µM | 5.3 µM |  |  | 
Cc1cccc(CNc2nc(NC3CCCCC3N)nc3c2ncn3C(C)C)c1O (stereo not drawn) [Compound 105] | 12 ± 4 µM | inhibition |  |  |  |  |  |  |  |  |  |  |  | 
Cc1ccc(O)c(CNc2nc(NC3CCC(N)CC3)nc3c2ncn3C(C)C)c1 (stereo not drawn) [Compound 106] | 7 ± 2 µM | inhibition |  |  |  |  |  |  |  |  |  |  |  | 
CCC(CO)Nc1nc(NCc2cc(C)ccc2O)c2ncn(C(C)C)c2n1 (stereo not drawn) [Compound 107] |  |  | 0.02 µM |  |  | ++ | 6.0 µM | 6.6 µM |  | 24.9 µM | 18 µM |  |  | 
CCC(CO)Nc1nc(NCc2ccc(O)cc2O)c2ncn(C(C)C)c2n1 (stereo not drawn) [Compound 119] |  |  | 0.08 µM | 0.05 µM |  | + | 12.0 µM | 4.3 µM | 1.6-fold activation | 13 µM | 8.1 µM |  |  | 
CCC(CO)Nc1nc(NCc2cc(O)cc(O)c2)c2ncn(C(C)C)c2n1 (stereo not drawn) [Compound 123] |  |  |  |  |  | + | 11.0 µM |  | 1.7-fold activation |  |  | 3.2 µM | 5.3 µM | 3.7 µM
CC(C)C(CO)Nc1nc(NCc2cc(O)ccc2O)c2ncn(C(C)C)c2n1 (stereo not drawn) [Compound 124] |  |  |  |  |  |  |  |  | 2.1-fold activation |  |  |  |  | 

The next lines start with results.

IC50 (β-adrenergic receptors) | EFFECT (modulation of the activity of β-adrenergic receptors) (β-adrenergic receptors) | IC50 (CDK2/cyclin E) | IC50 (CDK9/cyclin T) | IC50 (μM) (modulation of the activity of β-adrenergic receptors) (β-adrenergic receptors) | SMILES | p53 (effect): induction of p53 protein (p53) | p53 (peak concentration in μM) (p53) | IC50 ([1]; Homo sapiens) | EFFECT: fold activation (modulation of the activity of β-adrenergic receptors) (β-adrenergic receptors) | IC50 ([2]; Homo sapiens) | IC50 ([3]; Homo sapiens) | IC50 [1] | IC50 [2] | IC50 [3]
4 ± 1 µM | inhibition |  |  |  | COc1cccc(CNc2nc(NC3CCC(N)CC3)nc3c2ncn3C(C)C)c1O (mixture of isomers) [Compound 126, (E/Z)—N^2-(4-aminocyclohexyl)-N^6-(2-hydroxy-3-methoxybenzyl)-9-isopropyl-9H-purin-2,6-diamine] | ++ | 11.0 µM |  |  |  |  |  |  | 
2 µM | inhibition | 0.02 µM |  |  | COc1cccc(CNc2nc(NC3CCCCC3N)nc3c2ncn3C(C)C)c1O (stereo not drawn) [Compound 125] | ++ | 10.0 µM | 3.2 µM |  | 10.9 µM |  |  |  | 
 | inactive |  |  | inactive | Cn1cnc2c(NCc3ccccc3)nc(NCCO)nc21 [OC] |  |  |  |  |  |  | 133 µM | 163 µM | 
